Experimental data taken from patent publication US5352703A, “Antitussive and mucus regulating agent, a process for the preparation thereof and pharmaceutical compositions containing it” (priority 1990, dated 1994).
“Also recorded” adds a separate entry of the source.

Legend:
Assay type in all cases: in vivo
[1] = system: Citric acid induced cough; test: Citric acid induced cough in Guinea pig; details: for Cough strokes after treatment: mean ± S.E.; for Cough strokes after treatment / % inhibition vs. basal (cough strokes): n = 10; for ED50: Cavia porcellus, ip., citric acid cough, read-out: DE50 (effective dose 50, ED50)
Source text: 1. Citric acid induced cough in Guinea pig. The procedure described by R.A. Turner in "Screening methods in pharmacology-Antitussive agents" -Academic Press. New York-chapt. 23-page 219, 1965, with the changes reported by S. Malandrino et al. (Arzneim. Forsch. Drug. REs, 38, 1141, 1988), was used, comparing YS 912 with Ambroxol.

[2] = Acute pharmacokinetic study in the rat, single administration at equimolecular doses
Procedure: A study was carried out on the rat, by comparing the kinetic profiles of YS 912 and Ambroxol, after single administration at equimolecular doses.

[3] = system: Cough induced by mechanical stimulation; test: Cough induced by mechanical stimulation in dog; details: for antitussive activity in words: mechanical stimulation, p.o., Ambroxol at twice the YS 912 dose
Source text: Cough induced by mechanical stimulation in dog.
24 Page 523, was used, comparing YS 912 with Ambroxol, Fominoben and Codeine phosphate.

[4] = system: NH3 induced cough; test: NH3 induced cough in Guinea pig; details: for antitussive activity in words: NH3 cough, p.o., Ambroxol at twice the YS 912 dose
Source text: NH3 induced cough in Guinea pig.
23-page 219, 1965 with the changes reported by S. Malandrino et al. (Arzneim. Forsch. Drug. Res, 38, 1141, 1988) was used, comparing YS 912, Ambroxol and two standard control drugs: Fominoben and Codeine phosphate.

[5] = "In steady" pharmacokinetic study in the rat, equimolecular doses during 6 days; details: extrapolated to human from rat
[6] = system: bronchial fluid; test: Bronchosecretolytic activity (fluorescein amount in bronchial fluid); details: for Fluorescein amount in bronchial fluid: means of 12 animals, controls 0.26 ± 0.03; for ED50: po, bronchosecretolytic activity, read-out: DE50 (calculated effective dose 50)
Source text: The procedure described by H. […] Graziani and P. Cazzulani-(I1 Farmaco Ed. Pr. 36, 167; 1981) was used, comparing YS 912 with Ambroxol at the same weight doses.

[7] = single administration at equimolecular doses

SMILES	Cough strokes after treatment ([1]; 12.5 mg/kg ip.) [cough strokes]	% inhibition vs. basal (cough strokes) ([1]; 12.5 mg/kg ip.) [%]	Cough strokes after treatment ([1]; 25 mg/kg ip.) [cough strokes]	% inhibition vs. basal (cough strokes) ([1]; 25 mg/kg ip.) [%]	Cough strokes after treatment ([1]; 50 mg/kg ip.) [cough strokes]	% inhibition vs. basal (cough strokes) ([1]; 50 mg/kg ip.) [%]	ED50 [1] [mg/kg]	% inhibition vs. controls ([3]; 50 mg/kg p.o.) [%]	antitussive activity in words [3]	% inhibition vs. controls ([4]; 50 mg/kg p.o.) [%]	antitussive activity in words [4]	% v.s. controls (fluorescein amount) ([6]; 12.5 mg/kg p.o.) [%]	Fluorescein amount in bronchial fluid ([6]; 12.5 mg/kg p.o.)	% v.s. controls (fluorescein amount) ([6]; 25.0 mg/kg p.o.) [%]	Fluorescein amount in bronchial fluid ([6]; 25.0 mg/kg p.o.)	% v.s. controls (fluorescein amount) ([6]; 50.0 mg/kg p.o.) [%]	Fluorescein amount in bronchial fluid ([6]; 50.0 mg/kg p.o.)	ED50 [6] [mg/kg]	other results
O=C(Nc1c(Br)cc(Br)cc1CNC1CCC(O)CC1)c1ccccc1 (stereo not shown) [YS 912, 2-benzoylamino-3,5-dibromo-N-(4-hydroxycyclohexyl)benzylamine]	2.90 ± 0.60	62.34	2.30 ± 0.54	75.00	2.00 ± 0.47	78.95	4.81	54.0	comparable to that of the two control compounds	61.0	high activity	19.23	0.31 ± 0.03	30.76	0.34 ± 0.04	46.15	0.38 ± 0.04	60	antitussive activity in words ([1]; 12.5, 25, 50 mg/kg ip., compared with Ambroxol): remarkable antitussive activity; also recorded: higher than that of Ambroxol; potency by ED50 relative to Ambroxol ([1]; ratio to Ambroxol): 14 times; Tmax ([2]; plasma, single administration, read-out: time of plasmatic concentration peak (converted)): 30 min; adsorption (absorption) ([2]; single administration): fast and high; main metabolite ([2]; single administration): the main metabolite being Ambroxol; AUC compared with Ambroxol [2, 7]: higher value being evidenced also in the case of the AUC; plasmatic half-life, increase over that of Ambroxol [2, 7]: 30%; metabolism: kinetic ([2]; single administration, after the 6th hour): slower kinetic; plasmatic concentrations in human clinic, extrapolated, two daily YS 912 vs three daily Ambroxol administrations [5]: two daily administrations of YS 912 allow to achieve plasmatic concentrations (and therefore therapeutical effectiveness) which can be compared with those obtained after three daily administrations of Ambroxol; bronchosecretolytic effectiveness in words ([6]; p.o.): more favourable
COc1ccc2c3c1O[C@H]1[C@@H](O)C=C[C@H]4[C@@H](C2)N(C)CC[C@@]341 [Codeina fosfato]																			% inhibition vs. controls ([3]; 5 mg/kg p.o.): 63.1%; % inhibition vs. controls ([4]; 5 mg/kg p.o.): 56.1%
Nc1c(Br)cc(Br)cc1CNC1CCC(O)CC1 (stereo not shown) [Ambroxol, 2-Amino-3,5-dibromo-N-(4-hydroxycyclohexyl)benzylamine, reference compound]	7.40 ± 1.32	19.57	6.20 ± 0.61	35.42	4.80 ± 1.02	46.07	57.2		substantially no effectiveness		poorly effective, lacking any statistical significance	23.07	0.32 ± 0.03	26.92	0.33 ± 0.02	42.30	0.37 ± 0.03	95.2	last time at which it can be dosed in plasma ([2]; in vivo): 12 h; time of plasmatic concentration peak ([2]; in vivo): second; % inhibition vs. controls ([3]; 100 mg/kg p.o.): 13.5%; % inhibition vs. controls ([4]; 100 mg/kg p.o.): 34.2%
CN(CC(=O)N1CCOCC1)Cc1c(Cl)cccc1NC(=O)c1ccccc1 [Fominoben]								59.0		63.4									
